Assay [1] has as its system strains included in MTC01. Nature of the assay: Antibiotic susceptibility, MIC by CLSI standards (Micromyx) and in-house etest. It counts as cell-based. To be noted: highest value of CLSI and etest methods. An excerpt:
To be suitable for human trials, the strains in the bacterial consortium must be cultivatable in growth media that is free of animal products. The inventors discovered that all 16 bacterial strains can be cultured in a specific animal free media LYH_VIB (Table 7). All strains reach sufficient optical density (OD600) and potency (CFU/mL) cultured in LYH_VIB to be manufactured for human trials (Table 5). For safety considerations, the inventors focused on bacterial consortium strains that would be susceptible to multiple antibiotics. The inventors tested susceptibility to a range of antibiotics for all strains included in MTC01 and the minimal inhibitory concentration (MIC) was determined according to guidelines of the Clinical and Laboratory Standards Institute (CLSI). All strains were susceptible to multiple antibiotics (Table 6). […] The inventors confirmed that all 16 strains were strict anaerobes with no bacterial growth documented for any of the strains under aerobic conditions as confirmed by total aerobic microbial count (TAMC).
Each strain is susceptible to multiple antibiotics, and all strains are susceptible to three antibiotics (SAM, AMC, MEM). Minimum inhibitory concentrations (MIC) were determined by a CRO [Micromyx, LLC] according to CLSI standards and in-house by etest, keeping the highest value between the two methods: vancomycin (VAN), metronidazole (MTZ), tigecycline (TGC), ampicillin/sulbactam (SAM), amoxicillin/clavulanic acid (AMC), meropenem (MEM), piperacillin/tazobactam (TZP), clindamycin (CLI), ceftriaxone (CRO), moxifloxacin (MOX). […] Finally, multiple test fermentations were used to determine that the volumes for each manufacturing run are well within the 8L capacity of our current manufacturing set-up.

Assay [2] deals with patients with rCDI. Kind of assay: Validation of bacterial strain engraftment through culturing from donor and recipient post-FMT. As to conditions: 8 weeks post-FMT; number of strains of the species. Format: in vivo, human. An excerpt: The isolation and sequencing of the transmitted strains from both the donor and the recipient represents a gold standard validation and verification of the commensal Koch’s postulates. […] The inventors cultured strains from 6 recipients both pre- and post-FMT (FIG. 2A) and compared the strain composition to that from the donor, to experimentally validate bacterial strain transmission.

In the case of `C[C@@H](O)[C@H]1C(=O)N2C(C(=O)O)=C(S[C@@H]3CN[C@H](C(=O)N(C)C)C3)[C@H](C)[C@H]12` [MEM, meropenem], the “susceptibility of all MTC01 strains to the antibiotic” value in assay [1] is on record as “susceptible”.
As for Bacteroides cellulosilyticus, the “Cultured in both donor and recipient post-FMT at 8 weeks” value (shortened to “Cultured”) in assay [2] is listed as 1 strains.
As to Bacteroides fragilis, in assay [2], the “Cultured” value was 1 strains.
Still for that read-out and setting: under Bifidobacterium longum stands 4 strains.
For the compound Parabacteroides distasonis, the “Cultured” value in assay [2] turned out to be 3 strains.
For the compound amoxicillin/clavulanic acid [AMC], in assay [1], the “susceptibility of all MTC01 strains to the antibiotic” value was “susceptible”.
Same read-out and setting: then ampicillin/sulbactam [SAM], with “susceptible”.

(Values after US20230310518A1, “Compositions and Methods for Treating Infections of the Gastrointestinal Tract” (Icahn School of Medicine at Mount Sinai, priority 2020, published 2023).)
